From PMC4326489, “Efficacy and pharmacokinetic evaluation of a novel anti-malarial compound (NP046) in a mouse model” (Malaria Journal, 2015)
Values joined by “and” are separate entries in the source; they are usually repeats but may differ in a detail not shown here. Equal values may be shown once. Read-outs that look alike come from different tables or passages of the source.

Legend:
[1] = system: Plasmodium berghei transfected with green fluorescence protein (strain ANKA); experiment: In vivo efficacy (four-day dosing) in P. berghei-infected mice, % parasitaemia by flow cytometry; design: species or system Plasmodium berghei in male C57BL/6 mice; conditions: day five post-infection; for % parasitaemia: once a day for four days, mean ± S.E.M; for % growth inhibition: relative to negative control (placebo)
Method: Plasmodium berghei transfected with green fluorescence protein (strain ANKA), a chloroquine-sensitive strain, was stored in liquid nitrogen. Parasites were thawed and administered intraperitoneally (IP) to infect two donor mice a week before the experiment commenced. […] Finally, each of the test animals received 200 μl of the P. berghei-infected RBCs (1×10^7 per 200 μl PBS) IP to infect them with the parasite. There were three animals per dose group, and each of them received 200 μl of NP046 in water orally and intravenously (volume adjusted relative to the weight of mouse) at their respective dose concentration as shown below:
The test compound was administered to the animals once a day for four days. […] Blood samples were collected via tail bleeding in tubes containing PBS on day 5, and % parasitaemia was determined with FACSCalibur™ using the software CellQuestPro [5].
Finally, the percentage parasite growth inhibition was calculated using the following equation [6]: [drawing 1]

[2] = In vivo PK evaluation in mice (blood, LC-MS/MS, non-compartmental analysis); design: species or system male C57BL/6 mice; conditions: for concentration at 7 h: read-out: mean blood concentration at seven hours after dosing
Method: The in vivo PK properties of NP046 were evaluated following oral (50 and 10 mg/kg) and IV (5 mg/kg) administration of the compound in water to male C57BL/6 mice (n = 5). Blood samples were collected via tail bleeding in heparinized tubes at predetermined sampling times on ice, and were stored at -80°C until analysis. Despite the critical problem of obtaining numerous blood samples from a mouse without compromising the health/safety of the animal, blood samples at all the sampling times, i.e. 0.17, 0.5, 1, 3, 5 and 7 hours for the IV dose groups, and 0.5, 1, 3, 5 and 7 hours for the oral dose groups were collected from each mouse. The extraction volume during sample analysis was targeted at the lowest possible volume (20 μl) thereby minimizing the total volume of blood harvested from the animal.
Blood samples collected from mice following the administration of NP046 together with the calibration standards (STDs) and quality controls (QCs) of NP046 were analyzed using a validated LC-MS/MS assay (for details of the LC-MS/MS assay see Additional file 2). Concentration vs time profiles were constructed and using Summit PK software the data were processed to obtain the PK properties of NP046.
Blood samples collected from mice after the administration of NP046, together with the calibration standards (STDs) and quality controls (QCs), were analysed using a fully validated LC-MS/MS assay. NP046 concentrations were detectable for up to seven hours after oral and IV dosing. Concentration vs time profiles (Figures 3 and 4) were constructed and the data processed with Summit PK software (non-compartmental analysis) to obtain the PK parameters as presented in Table 2. The LC-MS/MS method performed very well; NP046 concentrations in the mice were detectable for up to seven hours after both 50 and 10 mg/kg oral dosing, with mean concentrations of 0.05 and 0.02 μM, respectively.

[3] = Non-specific binding to the micro-partition device (ultrafiltration); format: in vitro ADME; conditions: PBS pH 7.4
Method: PPB (plasma protein binding), the extent to which a drug binds to protein in plasma, can affect the PK-PD properties of a drug. Thus, determining the PPB property of a drug in the early stage of drug development process is crucial and a prerequisite for lead prioritization. Initially the PPB assay was performed using an ultrafiltration method [see Additional file 3], which depends on centrifugal force to move the unbound analyte of interest through a size-selective membrane. Ultrafiltration is recommended for the determination of PPB property if the non-specific binding (NSB) of the test drug to the micro-partition device is less than 5%. If NSB > 5%, an alternative technique such as equilibrium dialysis or ultracentrifugation should be used.
Procedure for the determination of nonspecific binding by Ultrafiltration (procedure was adopted from Dow, 2002; with a slight modification).
0.01 M PBS, pH 7.4, was prepared by dissolving 4 g of NaCl, 0.1 g of KCl, 0.722 g of Na2HPO4, and 0.12 g of KH2PO4 with water to a final volume of 500 ml.
Primary stock solutions of TK900D, TK900E, and NP046 at 100 µg/ml; and secondary stock solutions at 1 µg/ml in methanol were prepared. […]
The ultrafiltrate were extracted and analysed quantitatively using the validated LC-MS/MS bioanalytical drug assay methods specified in Chapters 8 and 9.
The %NSB were calculated using the equation: […]

[4] = Lipophilicity, Log D by scaled-down shake-flask method (octanol/PBS); format: physicochemical; conditions: pH 7.4, read-out: Log D7.4
Method: Lipophilicity is a compound’s tendency to partition into a non-polar lipid matrix versus an aqueous matrix. It is an important property of a drug which has a significant influence on the drug ADME/tox properties as well as its biological activity. […].
Stock solutions of NP046 and controls in DMSO (10 mM) were prepared and an aliquot of each phase (octanol/PBS) was analysed by an HPLC-Diode array detector (DAD) method. Chromatographic separation was achieved on a Phenomenex® Kinetex C18 (50 × 2.1 mm i.d. 2.6 μm) column with a gradient elution, using mobile phase (A) 5 mM ammonium format-acetonitrile (95:5, v/v) and (B) 5 mM ammonium format-acetonitrile (5:95, v/v). The Log D values were calculated using the analyte peak areas obtained from each phase (Octanol/PBS) according to the following equation [12]: [drawing 2]

[5] = male, C57BL/6, whole blood, IV 5 mg/kg, mouse
[6] = male, C57BL/6, whole blood, oral 10 mg/kg, mouse
[7] = male, C57BL/6, whole blood, oral 50 mg/kg, mouse

**Q.** For `Oc1cc(CCCc2ccc(F)cc2)ccc1CN1CCCCC1` [NP046, 5-(3-(4-fluorophenyl)propyl)-2-(piperidin-1-ylmethyl)phenol], which “% parasitaemia” value ([1]; 1 mg/kg IV) is on record?
**A.** Its value is 10.2 ± 1.75%.

**Q.** And the “% growth inhibition” value ([1]; 5 mg/kg IV)?
**A.** Its value is 87.4%.

**Q.** What about the “% parasitaemia” value ([1]; 5 mg/kg IV) of the same compound?
**A.** Its value is 4.05 ± 0.12%.

**Q.** And the “% growth inhibition” value ([1]; 10 mg/kg oral)?
**A.** The value was 24.6%.

**Q.** And the “% parasitaemia” value ([1]; 10 mg/kg oral)?
**A.** The value was 24.3 ± 0.80%.

**Q.** What about the “% growth inhibition” value ([1]; 50 mg/kg oral) of the same compound?
**A.** Its value is 47.3%.

**Q.** What about the “% parasitaemia” value ([1]; 50 mg/kg oral) of the same compound?
**A.** Its value is 16.7 ± 3.34%.

**Q.** And the “AUC 0 - ∞” value ([2]; IV 5 mg/kg, mouse blood)?
**A.** Its value is 248 ± 12.6 µmol·min/L.

**Q.** And the half-life ([2]; male, C57BL/6, whole blood, other: oral and IV (range over both), range over oral (50 and 10 mg/kg) and IV (5 mg/kg) groups, mouse, read-out: mean half-life)?
**A.** The half-life was 3.1 to 4.4 h.

**Q.** What about the Vd [2, 5] of the same compound?
**A.** The Vd was 16.9 ± 1.3 L/kg.

**Q.** And the half-life ([2]; male, C57BL/6, whole blood, IV 5 mg/kg, mouse blood, mean ± S.E.M, n = 5, read-out: Apparent t 1/2 (converted))?
**A.** Its half-life is 3.2 ± 0.35 h.

**Q.** What about the clearance ([2]; male, C57BL/6, whole blood, IV 5 mg/kg, mouse, read-out: Blood CL total) of the same compound?
**A.** Its clearance is 62.2 ± 3 mL/min/kg.

**Q.** And the concentration at 7 h [2, 5]?
**A.** Its concentration at 7 h is 140 nM.

**Q.** And the Tmax [2, 6]?
**A.** The Tmax was 0.8 h.

**Q.** What about the bioavailability [2, 6] of the same compound?
**A.** The bioavailability was 6 ± 2.9%.

**Q.** And the Cmax ([2]; male, C57BL/6, whole blood, oral 10 mg/kg, mouse blood)?
**A.** Its Cmax is 130 ± 60 nM.

**Q.** What about the half-life ([2]; male, C57BL/6, whole blood, oral 10 mg/kg, mouse blood, mean ± S.E.M, n = 5, read-out: Apparent t 1/2 (converted)) of the same compound?
**A.** Its half-life is 3.1 ± 0.46 h.

**Q.** And the concentration at 7 h [2, 6]?
**A.** The concentration at 7 h was 20 nM.

**Q.** What about the Tmax [2, 7] of the same compound?
**A.** The Tmax was 0.5 h.

**Q.** What about the bioavailability [2, 7] of the same compound?
**A.** Its bioavailability is 3.2 ± 0.47%.

**Q.** And the Cmax ([2]; male, C57BL/6, whole blood, oral 50 mg/kg, mouse blood)?
**A.** Its Cmax is 470 ± 100 nM.

**Q.** And the half-life ([2]; male, C57BL/6, whole blood, oral 50 mg/kg, mouse blood, mean ± S.E.M, n = 5, read-out: Apparent t 1/2 (converted))?
**A.** Its half-life is 4.4 ± 0.6 h.

**Q.** What about the concentration at 7 h [2, 7] of the same compound?
**A.** Its concentration at 7 h is 50 nM.

**Q.** What about the “AUC 0 - ∞” value ([2]; oral 10 mg/kg, mouse blood, 10 mg/kg) of the same compound?
**A.** The value was 30 µmol·min/L and 30 ± 14.7 µmol·min/L.

**Q.** What about the “AUC 0 - ∞” value ([2]; oral 50 mg/kg, mouse blood, 50 mg/kg) of the same compound?
**A.** Its value is 80 µmol·min/L and 80 ± 8.8 µmol·min/L.

**Q.** And the “NSB (non-specific binding to the micro-partition device)” value [3]?
**A.** Its value is greater than 5%.

**Q.** What about the logD [4] of the same compound?
**A.** The logD was 2.6.
